According to US10781204B2, “TYK2 inhibitors and uses thereof” (Nimbus Lakshmi, Inc., priority 2015, dated 2020):

Tests used:
JAK2 = JAK2 (Homo sapiens (Human), UniProt O60674); assay: JAK2 radioactive kinase assay; type: biochemical; conditions: ATP 10 μM
In short: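 Radiometric assay in Hepes pH 7.5, MgCl2, EGTA, Brij35, BSA, DTT, 1% DMSO, with 10 μM [33P]ATP, 120 min at room temp; P81 paper capture and counting. […]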

[1] = test system: Tyk2-pSTAT4 (IL-12 induced pSTAT4); assay: IL-12 induced pSTAT4 in human PBMC; type: cell-based; conditions: Homo sapiens, PBMC, 0.5 h, 1.7 ng/mL IL-12, 30 minutes
In short: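 Thawed human PBMC (200,000 cells/well, serum-containing medium) preincubated with compound 1 hr at 37 C, 0.1% DMSO final. Stimulated with 1.7 ng/mL IL-12 (final) for 30 minutes; pSTAT4 and total STAT4 in lysates measured by MSD immunoassay.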

[2] = test system: JAK2-pSTAT5 (GM-CSF induced pSTAT5); assay: GM-CSF induced pSTAT5 in human PBMC; type: cell-based; conditions: 5 ng/mL GM-CSF
Procedure: Human PBMC are isolated from buffy coat and are stored frozen for assays as needed. Cells for assay are thawed and resuspended in complete media containing serum, then cells are diluted to 1.67 E6 cells/ml so that 120 ul per well is 200,000 cells. 15 ul of compound or DMSO is added to the well at the desired concentrations and incubated at 1 hr at 37 C. 15 ul of stimulus (final concentration of 1.7 ng/mL IL-12) is added for 30 minutes prior to pSTAT4 and total STAT4 analysis using cell lysates prepared and analyzed by MSD reagents as per manufacturer protocol. The final DMSO concentration of compound in the assay is 0.1%.
Cells are prepared for analysis as in the above procedure and 15 ul of GM-CSF (final concentration 5 ng/mL) is added for 20 minutes prior to pSTAT5 and total STAT5 analysis using cell lysates prepared and analyzed by MSD reagents as per manufacturer protocol. The final DMSO concentration of compound in the assay is 0.1%.

TYK2 = TYK2 (Homo sapiens (Human), UniProt P29597); assay: Tyk2 radioactive kinase assay; type: biochemical; conditions: ATP 10 μM
In short: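 Recombinant human TYK2 (Invitrogen) was mixed with 20 μM peptide substrate in a buffer of 20 mM Hepes pH 7.5, 10 mM MgCl2, 1 mM EGTA, 0.02% Brij35, 0.02 mg/mL BSA, 0.1 mM […], 2 mM DTT and 1% DMSO, and compounds in DMSO were added. Adding ^33P-ATP (10 μM ATP) started the reaction, which ran 120 min at room temperature. Mixtures were then spotted onto P81 ion-exchange paper, washed thoroughly in 0.75% phosphoric acid, and counted for radioactivity.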

Chain of JAK2 (O60674 whole entry): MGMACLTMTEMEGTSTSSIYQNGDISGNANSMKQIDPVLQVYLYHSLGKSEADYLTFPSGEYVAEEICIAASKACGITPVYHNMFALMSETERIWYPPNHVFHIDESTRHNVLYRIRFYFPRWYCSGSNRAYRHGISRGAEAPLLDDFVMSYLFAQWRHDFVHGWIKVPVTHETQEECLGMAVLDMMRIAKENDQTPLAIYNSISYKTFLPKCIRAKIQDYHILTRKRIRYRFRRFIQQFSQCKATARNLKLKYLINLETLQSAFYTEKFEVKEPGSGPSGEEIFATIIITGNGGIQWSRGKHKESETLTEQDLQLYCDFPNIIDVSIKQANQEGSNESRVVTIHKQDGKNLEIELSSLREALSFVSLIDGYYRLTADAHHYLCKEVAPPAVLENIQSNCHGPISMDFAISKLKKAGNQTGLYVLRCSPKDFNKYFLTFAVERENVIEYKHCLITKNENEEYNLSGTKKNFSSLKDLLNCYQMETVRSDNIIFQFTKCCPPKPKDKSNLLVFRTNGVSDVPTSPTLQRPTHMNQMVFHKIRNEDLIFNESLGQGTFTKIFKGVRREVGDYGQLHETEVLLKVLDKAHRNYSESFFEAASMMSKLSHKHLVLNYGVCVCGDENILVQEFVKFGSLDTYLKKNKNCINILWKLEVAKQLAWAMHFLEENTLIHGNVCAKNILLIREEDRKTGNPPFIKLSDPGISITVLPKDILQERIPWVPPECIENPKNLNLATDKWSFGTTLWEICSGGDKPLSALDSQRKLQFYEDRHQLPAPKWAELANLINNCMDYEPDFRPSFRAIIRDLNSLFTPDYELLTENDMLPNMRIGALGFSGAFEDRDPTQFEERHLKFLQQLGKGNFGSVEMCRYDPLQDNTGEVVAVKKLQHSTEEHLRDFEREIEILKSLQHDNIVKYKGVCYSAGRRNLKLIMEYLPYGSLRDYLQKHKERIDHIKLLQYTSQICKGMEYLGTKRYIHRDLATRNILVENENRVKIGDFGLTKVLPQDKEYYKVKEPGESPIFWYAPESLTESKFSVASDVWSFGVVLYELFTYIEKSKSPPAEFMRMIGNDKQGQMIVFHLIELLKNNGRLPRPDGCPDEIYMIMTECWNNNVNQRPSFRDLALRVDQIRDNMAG
Chain of TYK2 (P29597 whole entry): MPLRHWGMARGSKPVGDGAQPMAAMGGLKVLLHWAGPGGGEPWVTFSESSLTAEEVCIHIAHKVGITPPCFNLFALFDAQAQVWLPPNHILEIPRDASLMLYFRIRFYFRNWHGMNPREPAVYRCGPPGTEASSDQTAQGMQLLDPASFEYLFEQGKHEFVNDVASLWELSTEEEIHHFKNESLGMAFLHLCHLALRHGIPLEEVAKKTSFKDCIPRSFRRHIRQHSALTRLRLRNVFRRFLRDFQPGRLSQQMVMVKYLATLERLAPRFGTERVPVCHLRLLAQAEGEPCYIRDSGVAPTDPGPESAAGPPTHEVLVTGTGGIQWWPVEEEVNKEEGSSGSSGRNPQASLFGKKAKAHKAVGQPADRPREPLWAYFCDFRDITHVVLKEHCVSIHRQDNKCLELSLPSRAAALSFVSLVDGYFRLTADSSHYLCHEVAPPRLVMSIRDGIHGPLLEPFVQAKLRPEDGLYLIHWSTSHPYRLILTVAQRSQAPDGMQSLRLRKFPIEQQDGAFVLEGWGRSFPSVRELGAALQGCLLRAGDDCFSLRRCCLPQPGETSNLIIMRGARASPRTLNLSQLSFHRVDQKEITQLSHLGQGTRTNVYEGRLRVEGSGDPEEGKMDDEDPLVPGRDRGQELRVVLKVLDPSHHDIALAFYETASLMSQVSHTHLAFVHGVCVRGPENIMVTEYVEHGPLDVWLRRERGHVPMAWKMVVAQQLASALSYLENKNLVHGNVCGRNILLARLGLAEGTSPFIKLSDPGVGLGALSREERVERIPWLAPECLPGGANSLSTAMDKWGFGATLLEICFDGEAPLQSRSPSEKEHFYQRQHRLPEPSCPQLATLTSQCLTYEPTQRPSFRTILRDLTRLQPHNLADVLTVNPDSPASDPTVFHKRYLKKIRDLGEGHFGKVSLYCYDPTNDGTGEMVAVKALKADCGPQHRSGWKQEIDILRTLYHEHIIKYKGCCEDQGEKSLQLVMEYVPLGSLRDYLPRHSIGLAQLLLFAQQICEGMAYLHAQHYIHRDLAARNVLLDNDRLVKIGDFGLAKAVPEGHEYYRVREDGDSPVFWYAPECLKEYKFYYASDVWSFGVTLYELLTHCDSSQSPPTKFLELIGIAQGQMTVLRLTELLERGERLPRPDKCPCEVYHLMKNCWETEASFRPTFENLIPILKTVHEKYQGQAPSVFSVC

Structure (SMILES)	Ki (JAK2) [nM]	EC50 [1] [nM]	EC50 ([2]; Homo sapiens, PBMC, 20 min) [nM]	Ki (TYK2) [nM]	EC50 ([2]; 20 minutes) [nM]
CC(C)c1ccn(-c2cc(-c3c(F)cccc3C#N)nc3c2C(=O)NC3)n1 [I-151, 3-fluoro-2-(4-(3-isopropyl-1H-pyrazol-1-yl)-5-oxo-6,7-dihydro-5H-pyrrolo[3,4-b]pyridin-2-yl)benzonitrile]	100 to 1000	100 to 2000	> 2000	0.1 to 10	–
N#Cc1cccc(F)c1-c1cc(-n2ccc(N3CCC[C@](O)(C(F)(F)F)C3)n2)c2c(n1)CNC2=O [I-88, (R)-3-fluoro-2-(4-(3-(3-hydroxy-3-(trifluoromethyl)piperidin-1-yl)-1H-pyrazol-1-yl)-5-oxo-6,7-dihydro-5H-pyrrolo[3,4-b]pyridin-2-yl)benzonitrile]	10 to 100	100 to 2000	> 2000	0.009 to 0.1	–
CN1CCN([C@H]2CCCN(c3ccn(-c4cc(-c5c(F)cccc5C#N)nc5c4C(=O)NC5)n3)C2)CC1 [I-155, (S)-3-fluoro-2-(4-(3-(3-(4-methylpiperazin-1-yl)piperidin-1-yl)-1H-pyrazol-1-yl)-5-oxo-6,7-dihydro-5H-pyrrolo[3,4-b]pyridin-2-yl)benzonitrile]	10 to 100	100 to 2000	> 2000	0.1 to 10	–
C[C@@H]1CC(O)C[C@H](C)N1c1ccn(-c2cc(-c3c(F)cccc3C#N)nc3c2C(=O)NC3)n1 (stereo partly drawn) [I-107, 3-fluoro-2-(4-(3-((2S,6R)-4-hydroxy-2,6-dimethylpiperidin-1-yl)-1H-pyrazol-1-yl)-5-oxo-6,7-dihydro-5H-pyrrolo[3,4-b]pyridin-2-yl)benzonitrile]	100 to 1000	100 to 2000	100 to 2000	10 to 100	–
N#Cc1cccc(F)c1-c1cc(-n2ccc(N3CCC[C@@H](C(N)=O)C3)n2)c2c(n1)CNC2=O [I-125, (R)-1-(1-(2-(2-cyano-6-fluorophenyl)-5-oxo-6,7-dihydro-5H-pyrrolo[3,4-b]pyridin-4-yl)-1H-pyrazol-3-yl)piperidine-3-carboxamide]	10 to 100	100 to 2000	100 to 2000	0.1 to 10	–
N#Cc1cccc(F)c1-c1cc(-n2ccc(N3CCCC3=O)n2)c2c(n1)CNC2=O [I-139, 3-fluoro-2-(5-oxo-4-(3-(2-oxopyrrolidin-1-yl)-1H-pyrazol-1-yl)-6,7-dihydro-5H-pyrrolo[3,4-b]pyridin-2-yl)benzonitrile]	10 to 100	100 to 2000	100 to 2000	0.1 to 10	–
N#Cc1cccc(F)c1-c1cc(-n2ccc(N3CCC[C@](N)(C(F)(F)F)C3)n2)c2c(n1)CNC2=O [I-119, (R)-2-(4-(3-(3-amino-3-(trifluoromethyl)piperidin-1-yl)-1H-pyrazol-1-yl)-5-oxo-6,7-dihydro-5H-pyrrolo[3,4-b]pyridin-2-yl)-3-fluorobenzonitrile]	0.1 to 10	30 to 100	100 to 2000	0.009 to 0.1	–
CC(=O)N[C@H]1CCCN(c2ccn(-c3cc(-c4c(F)cccc4C#N)nc4c3C(=O)NC4)n2)C1 [I-130, (S)-N-(1-(1-(2-(2-cyano-6-fluorophenyl)-5-oxo-6,7-dihydro-5H-pyrrolo[3,4-b]pyridin-4-yl)-1H-pyrazol-3-yl)piperidin-3-yl)acetamide]	10 to 100	100 to 2000	100 to 2000	0.1 to 10	–
CC1O[C@H]2CN(c3ccn(-c4cc(-c5c(F)cccc5C#N)nc5c4C(=O)NC5)n3)C[C@H]2O1 (stereo partly drawn) [I-161, 3-fluoro-2-(4-(3-((3aR,6aS)-2-methyltetrahydro-5H-[1,3]dioxolo-[4,5-c]pyrrol-5-yl)-1H-pyrazol-1-yl)-5-oxo-6,7-dihydro-5H-pyrrolo[3,4-b]pyridin-2-yl)benzonitrile]	10 to 100	100 to 2000	100 to 2000	0.1 to 10	–
N#Cc1cccc(F)c1-c1cc(-n2ccc(N3CC[C@@H](O)C3)n2)c2c(n1)CNC2=O [I-78, (R)-3-fluoro-2-(4-(3-(3-hydroxypyrrolidin-1-yl)-1H-pyrazol-1-yl)-5-oxo-6,7-dihydro-5H-pyrrolo[3,4-b]pyridin-2-yl)benzonitrile]	10 to 100	30 to 100	100 to 2000	0.1 to 10	–

The next lines start with the values.

Ki (JAK2) [nM]	EC50 [1] [nM]	EC50 ([2]; Homo sapiens, PBMC, 20 min) [nM]	Ki (TYK2) [nM]	EC50 ([2]; 20 minutes) [nM]	Structure (SMILES)
0.1 to 10	100 to 2000	100 to 2000	0.009 to 0.1	–	C[C@]1(O)CN(c2ccn(-c3cc(-c4c(F)cccc4C#N)nc4c3C(=O)NC4)n2)CC[C@H]1O [I-162, 2-(4-(3-((3S,4R)-3,4-dihydroxy-3-methylpiperidin-1-yl)-1H-pyrazol-1-yl)-5-oxo-6,7-dihydro-5H-pyrrolo[3,4-b]pyridin-2-yl)-3-fluorobenzonitrile]
10 to 100	100 to 2000	100 to 2000	0.1 to 10	–	CO[C@H]1CN(c2ccn(-c3cc(-c4c(F)cccc4C#N)nc4c3C(=O)NC4)n2)CC[C@H]1O [I-181, 3-fluoro-2-(4-(3-((3S,4R)-4-hydroxy-3-methoxypiperidin-1-yl)-1H-pyrazol-1-yl)-5-oxo-6,7-dihydro-5H-pyrrolo[3,4-b]pyridin-2-yl)benzonitrile]
0.1 to 10	100 to 2000	100 to 2000	0.1 to 10	–	CN1CCO[C@@H]2CN(c3ccn(-c4cc(-c5c(F)cccc5C#N)nc5c4C(=O)NC5)n3)C[C@@H]21 [I-225, 3-fluoro-2-(4-(3-((4aS,7aR)-4-methylhexahydropyrrolo[3,4-b][1,4]oxazin-6 (2H)-yl)-1H-pyrazol-1-yl)-5-oxo-6,7-dihydro-5H-pyrrolo[3,4-b]pyridin-2-yl)benzonitrile]
10 to 100	100 to 2000	–	0.009 to 0.1	> 2000	CO[C@@H]1CCN(c2ccn(-c3cc(-c4c(F)cccc4C#N)nc4c3C(=O)NC4)n2)C[C@]1(C)O [I-213, 3-fluoro-2-(4-(3-((3S,4R)-3-hydroxy-4-methoxy-3-methylpiperidin-1-yl)-1H-pyrazol-1-yl)-5-oxo-6,7-dihydro-5H-pyrrolo[3,4-b]pyridin-2-yl)benzonitrile]
0.1 to 10	30 to 100	100 to 2000	0.1 to 10	–	N#Cc1cccc(F)c1-c1cc(-n2ccc(N3CC[C@@H](C#N)[C@H](O)C3)n2)c2c(n1)CNC2=O [I-217, (3S,4S)-1-(1-(2-(2-cyano-6-fluorophenyl)-5-oxo-6,7-dihydro-5H-pyrrolo[3,4-b]pyridin-4-yl)-1H-pyrazol-3-yl)-3-hydroxypiperidine-4-carbonitrile]
0.1 to 10	30 to 100	100 to 2000	0.1 to 10	–	CO[C@@H]1CN(c2ccn(-c3cc(-c4c(F)cccc4C#N)nc4c3C(=O)NC4)n2)CC[C@H]1O [I-195, 3-fluoro-2-(4-(3-((3R,4R)-4-hydroxy-3-methoxypiperidin-1-yl)-1H-pyrazol-1-yl)-5-oxo-6,7-dihydro-5H-pyrrolo[3,4-b]pyridin-2-yl)benzonitrile]
10 to 100	30 to 100	100 to 2000	0.1 to 10	–	[2H]C([2H])([2H])O[C@H]1CN(c2ccn(-c3cc(-c4c(F)cccc4C#N)nc4c3C(=O)NC4)n2)C[C@H]1O [I-224, 3-fluoro-2-(4-(3-((3R,4S)-3-hydroxy-4-(methoxy-d3)pyrrolidin-1-yl)-1H-pyrazol-1-yl)-5-oxo-6,7-dihydro-5H-pyrrolo[3,4-b]pyridin-2-yl)benzonitrile]
10 to 100	100 to 2000	> 2000	0.1 to 10	–	N#Cc1cccc(F)c1-c1cc(-n2cc(F)c(N3CC[C@@H](O)C3)n2)c2c(n1)CNC2=O [I-189, (R)-3-fluoro-2-(4-(4-fluoro-3-(3-hydroxypyrrolidin-1-yl)-1H-pyrazol-1-yl)-5-oxo-6,7-dihydro-5H-pyrrolo[3,4-b]pyridin-2-yl)benzonitrile]
0.1 to 10	100 to 2000	100 to 2000	0.1 to 10	–	N#Cc1cccc(F)c1-c1cc(-n2ccc(N3CC[C@]4(CCNC4=O)C3)n2)c2c(n1)CNC2=O [I-165, (R)-3-fluoro-2-(5-oxo-4-(3-(6-oxo-2,7-diazaspiro[4.4]nonan-2-yl)-1H-pyrazol-1-yl)-6,7-dihydro-5H-pyrrolo[3,4-b]pyridin-2-yl)benzonitrile]
10 to 100	100 to 2000	> 2000	0.1 to 10	–	[2H]C1([2H])N(c2ccn(-c3cc(-c4c(F)cccc4C#N)nc4c3C(=O)NC4)n2)C([2H])([2H])[C@@]([2H])(O)C1([2H])[2H] [I-209, (S)-3-fluoro-2-(4-(3-(3-hydroxypyrrolidin-1-yl-2,2,3,4,4,5,5-d7)-1H-pyrazol-1-yl)-5-oxo-6,7-dihydro-5H-pyrrolo[3,4-b]pyridin-2-yl)benzonitrile]
